From PubChem BioAssay (NCI)
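Method: 48-hour compound exposure of cells in 96-well plates, five concentrations, linear interpolation of endpoints. GI50 = concentration required for 50% inhibition of growth. TGI: concentration producing complete growth inhibition.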

Columns and labels:
Experiment in all cases: inhibition of tumour cell growth, NCI panel, 48 h
K-562 leukemia = system: K-562 leukemia
RXF 393 renal = system: RXF 393 renal
SF-268 CNS = system: SF-268 CNS
SW-620 colon = system: SW-620 colon
HL-60(TB) leukemia = system: HL-60(TB) leukemia
OVCAR-8 ovarian = system: OVCAR-8 ovarian
SN12C renal = system: SN12C renal
BT-549 breast = system: BT-549 breast
COLO 205 colon = system: COLO 205 colon
HS 578T breast = system: HS 578T breast
EKVX NSCLC = system: EKVX NSCLC
MCF7 breast = system: MCF7 breast
UO-31 renal = system: UO-31 renal
SK-MEL-2 melanoma = system: SK-MEL-2 melanoma
HT29 colon = system: HT29 colon
PC-3 prostate = system: PC-3 prostate
MOLT-4 leukemia = system: MOLT-4 leukemia
M14 melanoma = system: M14 melanoma
HOP-62 NSCLC = system: HOP-62 NSCLC
CCRF-CEM leukemia = system: CCRF-CEM leukemia
UACC-62 melanoma = system: UACC-62 melanoma
SNB-75 CNS = system: SNB-75 CNS
UACC-257 melanoma = system: UACC-257 melanoma
786-0 renal = system: 786-0 renal
HOP-92 NSCLC = system: HOP-92 NSCLC
DU-145 prostate = system: DU-145 prostate
MALME-3M melanoma = system: MALME-3M melanoma
MDA-MB-231 breast = system: MDA-MB-231 breast
SNB-19 CNS = system: SNB-19 CNS
T-47D breast = system: T-47D breast
ACHN renal = system: ACHN renal
NCI-H226 lung = system: NCI-H226 lung
MDA-MB-435 = system: MDA-MB-435
TK-10 renal = system: TK-10 renal
LOX IMVI melanoma = system: LOX IMVI melanoma
NCI-H522 lung = system: NCI-H522 lung
OVCAR-5 ovarian = system: OVCAR-5 ovarian
NCI-H23 lung = system: NCI-H23 lung
RPMI-8226 leukemia = system: RPMI-8226 leukemia
OVCAR-4 ovarian = system: OVCAR-4 ovarian
CAKI-1 renal = system: CAKI-1 renal
HCC-2998 colon = system: HCC-2998 colon
HCT-116 colon = system: HCT-116 colon
A498 renal = system: A498 renal
IGROV1 ovarian = system: IGROV1 ovarian
KM12 colon = system: KM12 colon
SK-OV-3 ovarian = system: SK-OV-3 ovarian
HCT-15 colon = system: HCT-15 colon
U251 CNS = system: U251 CNS
SF-539 CNS = system: SF-539 CNS
SR leukemia = system: SR leukemia
SK-MEL-28 melanoma = system: SK-MEL-28 melanoma
SK-MEL-5 melanoma = system: SK-MEL-5 melanoma
OVCAR-3 ovarian = system: OVCAR-3 ovarian
A549 NSCLC = system: A549 NSCLC
SF-295 CNS = system: SF-295 CNS
NCI/ADR-RES ovarian = system: NCI/ADR-RES ovarian
NCI-H460 lung = system: NCI-H460 lung

Work on `COCCNC(=O)c1ccc(-c2nc3ccc4[nH]ncc4c3c3c2CCCC3)cc1` yielded a GI50 (K-562 leukemia) of 3.86 µM, a TGI (K-562 leukemia) greater than 100 µM and a GI50 (RXF 393 renal) of 0.498 µM. For the same compound, the TGI (RXF 393 renal) was 3.7 µM, the GI50 (SF-268 CNS) was 2.22 µM and the TGI (SF-268 CNS) was 39.7 µM. For the same compound, the GI50 (SW-620 colon) was 1.83 µM, the TGI (SW-620 colon) was 13.9 µM and the GI50 (HL-60(TB) leukemia) was 2.43 µM. The TGI (HL-60(TB) leukemia) was 7.33 µM, the GI50 (OVCAR-8 ovarian) was 2.64 µM and the TGI (OVCAR-8 ovarian) was greater than 100 µM. The GI50 (SN12C renal) was 2.61 µM, the TGI (SN12C renal) was 91.7 µM and the GI50 (BT-549 breast) was 1.22 µM. It also gave a TGI (BT-549 breast) of 9.34 µM, a GI50 (COLO 205 colon) of 2.83 µM and a TGI (COLO 205 colon) of 15 µM. For the same compound, the GI50 (HS 578T breast) was 0.88 µM, the TGI (HS 578T breast) was 4.68 µM and the GI50 (EKVX NSCLC) was 1.61 µM. It also gave a TGI (EKVX NSCLC) of 43.2 µM, a GI50 (MCF7 breast) of 2.52 µM and a TGI (MCF7 breast) of 20.4 µM. For the same compound, the GI50 (UO-31 renal) was 1.58 µM, the TGI (UO-31 renal) was 5.74 µM and the GI50 (SK-MEL-2 melanoma) was 2.16 µM. It also gave a TGI (SK-MEL-2 melanoma) of 7.97 µM, a GI50 (HT29 colon) of 3.11 µM and a TGI (HT29 colon) greater than 100 µM. It also gave a GI50 (PC-3 prostate) of 2.96 µM, a TGI (PC-3 prostate) greater than 100 µM and a GI50 (MOLT-4 leukemia) of 1.61 µM. The TGI (MOLT-4 leukemia) was 5.62 µM, the GI50 (M14 melanoma) was 1.39 µM and the TGI (M14 melanoma) was greater than 100 µM. It also gave a GI50 (HOP-62 NSCLC) of 0.969 µM, a TGI (HOP-62 NSCLC) of 39.5 µM and a GI50 (CCRF-CEM leukemia) of 2.44 µM. For the same compound, the TGI (CCRF-CEM leukemia) was 16.6 µM, the GI50 (UACC-62 melanoma) was 1.58 µM and the TGI (UACC-62 melanoma) was 13.1 µM. For the same compound, the GI50 (SNB-75 CNS) was 2.01 µM, the TGI (SNB-75 CNS) was 6.24 µM and the GI50 (UACC-257 melanoma) was 5.38 µM. For the same compound, the TGI (UACC-257 melanoma) was greater than 100 µM, the GI50 (786-0 renal) was 2.12 µM and the TGI (786-0 renal) was 16.2 µM. The GI50 (HOP-92 NSCLC) was 1.59 µM, the TGI (HOP-92 NSCLC) was 78.9 µM and the GI50 (DU-145 prostate) was 2.12 µM. For the same compound, the TGI (DU-145 prostate) was greater than 100 µM, the GI50 (MALME-3M melanoma) was 2.74 µM and the TGI (MALME-3M melanoma) was 18 µM. For the same compound, the GI50 (MDA-MB-231 breast) was 2.15 µM, the TGI (MDA-MB-231 breast) was 73 µM and the GI50 (SNB-19 CNS) was 3.79 µM. The TGI (SNB-19 CNS) was greater than 100 µM, the GI50 (T-47D breast) was 1.97 µM and the TGI (T-47D breast) was 16.3 µM. For the same compound, the GI50 (ACHN renal) was 1.14 µM, the TGI (ACHN renal) was 57.7 µM and the GI50 (NCI-H226 lung) was 2.47 µM. For the same compound, the TGI (NCI-H226 lung) was greater than 100 µM, the GI50 (MDA-MB-435) was 2.83 µM and the TGI (MDA-MB-435) was greater than 100 µM. For the same compound, the GI50 (TK-10 renal) was 1.09 µM, the TGI (TK-10 renal) was greater than 100 µM and the GI50 (LOX IMVI melanoma) was 2.88 µM. The TGI (LOX IMVI melanoma) was greater than 100 µM, the GI50 (NCI-H522 lung) was 1.92 µM and the TGI (NCI-H522 lung) was 12.4 µM. For the same compound, the GI50 (OVCAR-5 ovarian) was 6.05 µM, the TGI (OVCAR-5 ovarian) was greater than 100 µM and the GI50 (NCI-H23 lung) was 2.41 µM. The TGI (NCI-H23 lung) was 31.1 µM, the GI50 (RPMI-8226 leukemia) was 1.74 µM and the TGI (RPMI-8226 leukemia) was 7.03 µM. It also gave a GI50 (OVCAR-4 ovarian) of 4.59 µM, a TGI (OVCAR-4 ovarian) of 72.9 µM and a GI50 (CAKI-1 renal) of 0.689 µM. For the same compound, the TGI (CAKI-1 renal) was 7.29 µM, the GI50 (HCC-2998 colon) was 2.98 µM and the TGI (HCC-2998 colon) was greater than 100 µM. It also gave a GI50 (HCT-116 colon) of 1.2 µM, a TGI (HCT-116 colon) greater than 100 µM and a GI50 (A498 renal) of 0.174 µM. For the same compound, the TGI (A498 renal) was 2.93 µM, the GI50 (IGROV1 ovarian) was 1.24 µM and the TGI (IGROV1 ovarian) was 10.9 µM. It also gave a GI50 (KM12 colon) of 0.741 µM, a TGI (KM12 colon) of 42.5 µM and a GI50 (SK-OV-3 ovarian) of 0.905 µM. The TGI (SK-OV-3 ovarian) was 5.59 µM, the GI50 (HCT-15 colon) was 2.67 µM and the TGI (HCT-15 colon) was greater than 100 µM. It also gave a GI50 (U251 CNS) of 2.6 µM, a TGI (U251 CNS) greater than 100 µM and a GI50 (SF-539 CNS) of 1.71 µM. The TGI (SF-539 CNS) was 8.01 µM, the GI50 (SR leukemia) was 0.558 µM and the TGI (SR leukemia) was 6.2 µM. For the same compound, the GI50 (SK-MEL-28 melanoma) was 2.49 µM, the TGI (SK-MEL-28 melanoma) was 98.2 µM and the GI50 (SK-MEL-5 melanoma) was 3.39 µM. It also gave a TGI (SK-MEL-5 melanoma) of 26.3 µM, a GI50 (OVCAR-3 ovarian) of 3.85 µM and a TGI (OVCAR-3 ovarian) of 37.3 µM. For the same compound, the GI50 (A549 NSCLC) was 2.13 µM, the TGI (A549 NSCLC) was greater than 100 µM and the GI50 (SF-295 CNS) was 2.7 µM. The TGI (SF-295 CNS) was 47.7 µM, the GI50 (NCI/ADR-RES ovarian) was 4.29 µM and the TGI (NCI/ADR-RES ovarian) was greater than 100 µM. It also gave a GI50 (NCI-H460 lung) of 1.86 µM and a TGI (NCI-H460 lung) of 27.1 µM.
